# Values joined by “and” are separate entries in the source; they are usually repeats but may differ in a detail not shown here. Identical values can stand only once.
# Tested on: patients with treatment-resistant major depressive disorder (TRD)
# Test: Phase 1/2 clinical trial of inhaled 5-MeO-DMT in treatment-resistant depression
# Conditions: for MADRS Concentration Difficulties % improvement / MADRS Concentration Difficulties improvement / MADRS Inability to Feel % improvement / MADRS Inability to Feel improvement / MADRS Inner Tension % improvement / MADRS Inner Tension improvement / MADRS Lassitude % improvement / MADRS Lassitude improvement / MADRS Pessimistic Thoughts % improvement / MADRS Pessimistic Thoughts improvement / MADRS Suicidal Thoughts % improvement / MADRS Suicidal Thoughts improvement / MADRS Suicidal Thoughts aggregated score / MADRS Inner Tension aggregated score / MADRS Lassitude aggregated score / MADRS Pessimistic Thoughts aggregated score / MADRS Concentration Difficulties aggregated score / MADRS Inability to Feel aggregated score / BPRS Anxiety % improvement / BPRS Anxiety improvement / BPRS Blunted Affect % improvement / BPRS Blunted Affect improvement / BPRS Emotional Withdrawal % improvement / BPRS Emotional Withdrawal improvement / BPRS Guilt Feelings % improvement / BPRS Guilt Feelings improvement / BPRS Tension % improvement / BPRS Tension improvement / BPRS Emotional Withdrawal aggregated score / BPRS Blunted Affect aggregated score / BPRS Tension aggregated score / BPRS Guilt Feelings aggregated score / BPRS Anxiety aggregated score / MADRS Reduced Sleep % improvement / MADRS Reduced Sleep improvement / MADRS Reduced Sleep aggregated score: IDR n=8; for MADRS Suicidal Thoughts aggregated score: baseline 11; for MADRS Inner Tension aggregated score: baseline 26; for MADRS Lassitude aggregated score: baseline 27; for MADRS Pessimistic Thoughts aggregated score: baseline 28; for MADRS Concentration Difficulties aggregated score: baseline 30; for MADRS Inability to Feel aggregated score: baseline 36; for BPRS Emotional Withdrawal aggregated score: baseline 13; for BPRS Blunted Affect aggregated score: baseline 15; for BPRS Tension aggregated score: baseline 16; for BPRS Guilt Feelings aggregated score: baseline 34; for BPRS Anxiety aggregated score: baseline 37; for MADRS Reduced Sleep aggregated score: baseline 25
# Procedure: Patients were assigned to different groups. In the context of the present invention, the group who received a single, 12 mg dose and the group who underwent an intra-day individualized dosing regimen (IDR) that allowed for multiple, escalating doses (6 mg, 12 mg and 18 mg) within a single day, driven by the intensity of the patient-reported psychedelic experience are of interest.
# The data gathered include the assessment of the treated patients against several scales including the Montgomery Åsberg Depression Rating Scale (MADRS) and the Brief Psychiatric Rating Scale (BPRS).
# This trial was designed in two parts. Part A was an open-label, single-arm, single-dose Phase 1 trial with two dose levels (12 mg (n=4) and 18 mg (n=4)). […] The primary endpoint of Part B was to assess the effects on the severity of depression, as assessed by the proportion of patients in remission on day seven after dosing, defined as a MADRS total score of less than or equal to 10.
smiles,measurement,setting,value
COc1ccc2[nH]cc(CCN(C)C)c2c1 [5-MeO-DMT],MADRS Concentration Difficulties % improvement,2 h,63% and 63.33%
same,MADRS Concentration Difficulties improvement,2 h,19 points
same,MADRS Inability to Feel % improvement,2 h,67% and 66.67%
same,MADRS Inability to Feel improvement,2 h,24 points
same,MADRS Inner Tension % improvement,2 h,58% and 57.69%
same,MADRS Inner Tension improvement,2 h,15 points
same,MADRS Lassitude % improvement,2 h,63% and 62.96%
same,MADRS Lassitude improvement,2 h,17 points
same,MADRS Pessimistic Thoughts % improvement,2 h,75%
same,MADRS Pessimistic Thoughts improvement,2 h,21 points
same,MADRS Suicidal Thoughts % improvement,2 h,73% and 72.72%
same,MADRS Suicidal Thoughts improvement,2 h,8 points
same,MADRS Suicidal Thoughts aggregated score,2 h,3
same,MADRS Inner Tension aggregated score,2 h,11
same,MADRS Lassitude aggregated score,2 h,10
same,MADRS Pessimistic Thoughts aggregated score,2 h,7
same,MADRS Concentration Difficulties aggregated score,2 h,11
same,MADRS Inability to Feel aggregated score,2 h,12
same,BPRS Anxiety % improvement,3 h,49% and 48.65%
same,BPRS Anxiety improvement,3 h,18 points
same,BPRS Blunted Affect % improvement,3 h,27% and 26.67%
same,BPRS Blunted Affect improvement,3 h,4 points
same,BPRS Emotional Withdrawal % improvement,3 h,38% and 38.46%
same,BPRS Emotional Withdrawal improvement,3 h,5 points
same,BPRS Guilt Feelings % improvement,3 h,59% and 58.82%
same,BPRS Guilt Feelings improvement,3 h,20 points
same,BPRS Tension % improvement,3 h,31% and 31.25%
same,BPRS Tension improvement,3 h,5 points
same,BPRS Emotional Withdrawal aggregated score,3 h,8
same,BPRS Blunted Affect aggregated score,3 h,11
same,BPRS Tension aggregated score,3 h,11
same,BPRS Guilt Feelings aggregated score,3 h,14
same,BPRS Anxiety aggregated score,3 h,19
same,BPRS Anxiety % improvement,day 1,57% and 56.76%
same,BPRS Anxiety improvement,day 1,21 points
same,BPRS Blunted Affect % improvement,day 1,47% and 46.67%
same,BPRS Blunted Affect improvement,day 1,7 points
same,BPRS Emotional Withdrawal % improvement,day 1,38% and 38.46%
same,BPRS Emotional Withdrawal improvement,day 1,5 points
same,BPRS Guilt Feelings % improvement,day 1,68% and 67.65%
same,BPRS Guilt Feelings improvement,day 1,23 points
same,BPRS Tension % improvement,day 1,31% and 31.25%
same,BPRS Tension improvement,day 1,5 points
same,MADRS Concentration Difficulties % improvement,day 1,97% and 96.67%
same,MADRS Concentration Difficulties improvement,day 1,29 points
same,MADRS Inability to Feel % improvement,day 1,94% and 94.44%
same,MADRS Inability to Feel improvement,day 1,34 points
same,MADRS Inner Tension % improvement,day 1,77% and 76.92%
same,MADRS Inner Tension improvement,day 1,20 points
same,MADRS Lassitude % improvement,day 1,81% and 81.48%
same,MADRS Lassitude improvement,day 1,22 points
same,MADRS Pessimistic Thoughts % improvement,day 1,86% and 85.71%
same,MADRS Pessimistic Thoughts improvement,day 1,24 points
same,MADRS Reduced Sleep % improvement,day 1,52%
same,MADRS Reduced Sleep improvement,day 1,13 points
same,MADRS Suicidal Thoughts % improvement,day 1,91% and 90.91%
same,MADRS Suicidal Thoughts improvement,day 1,10 points
same,MADRS Suicidal Thoughts aggregated score,day 1,1
same,BPRS Emotional Withdrawal aggregated score,day 1,8
same,BPRS Blunted Affect aggregated score,day 1,8
same,BPRS Tension aggregated score,day 1,11
same,MADRS Reduced Sleep aggregated score,day 1,12
same,MADRS Inner Tension aggregated score,day 1,6
same,MADRS Lassitude aggregated score,day 1,5
same,MADRS Pessimistic Thoughts aggregated score,day 1,4
same,MADRS Concentration Difficulties aggregated score,day 1,1
same,BPRS Guilt Feelings aggregated score,day 1,11
same,MADRS Inability to Feel aggregated score,day 1,2
same,BPRS Anxiety aggregated score,day 1,16
same,BPRS Anxiety % improvement,day 7,54% and 54.05%
same,BPRS Anxiety improvement,day 7,20 points
same,BPRS Blunted Affect % improvement,day 7,47% and 46.67%
same,BPRS Blunted Affect improvement,day 7,7 points
same,BPRS Emotional Withdrawal % improvement,day 7,38% and 38.46%
same,BPRS Emotional Withdrawal improvement,day 7,5 points
same,BPRS Guilt Feelings % improvement,day 7,71% and 70.59%
same,BPRS Guilt Feelings improvement,day 7,24 points
same,BPRS Tension % improvement,day 7,38% and 37.50%
same,BPRS Tension improvement,day 7,6 points
same,MADRS Concentration Difficulties % improvement,day 7,70%
same,MADRS Concentration Difficulties improvement,day 7,21 points
same,MADRS Inability to Feel % improvement,day 7,83% and 83.33%
same,MADRS Inability to Feel improvement,day 7,30 points
same,MADRS Inner Tension % improvement,day 7,54% and 53.85%
same,MADRS Inner Tension improvement,day 7,14 points
same,MADRS Lassitude % improvement,day 7,89% and 88.89%
same,MADRS Lassitude improvement,day 7,24 points
same,MADRS Pessimistic Thoughts % improvement,day 7,89% and 89.29%
same,MADRS Pessimistic Thoughts improvement,day 7,25 points
same,MADRS Reduced Sleep % improvement,day 7,64%
same,MADRS Reduced Sleep improvement,day 7,16 points
same,MADRS Suicidal Thoughts % improvement,day 7,73% and 72.73%
same,MADRS Suicidal Thoughts improvement,day 7,8 points
same,MADRS Suicidal Thoughts aggregated score,day 7,3
same,BPRS Emotional Withdrawal aggregated score,day 7,8
same,BPRS Blunted Affect aggregated score,day 7,8
same,BPRS Tension aggregated score,day 7,10
same,MADRS Reduced Sleep aggregated score,day 7,9
same,MADRS Inner Tension aggregated score,day 7,12
same,MADRS Lassitude aggregated score,day 7,3
same,MADRS Pessimistic Thoughts aggregated score,day 7,3
same,MADRS Concentration Difficulties aggregated score,day 7,9
same,BPRS Guilt Feelings aggregated score,day 7,10
same,MADRS Inability to Feel aggregated score,day 7,6
same,BPRS Anxiety aggregated score,day 7,17
same,Patients maintaining remission,"IDR, Day 7",7/8
same,Patients achieving remission,"IDR, day 1",8/8
same,Patients achieving remission,"IDR, within 2h after dosing",5/8
same,SAEs,Part A,No SAEs were reported
same,"Changes in safety laboratory analyses, vital signs, psychiatric safety assessments, cognitive function",Part A and Part B,No clinically significant changes
same,Patients with at least one ADR,"Part A, both groups (12 mg and 18 mg), all mild, resolved spontaneously",3 of 4
same,SAEs,Part B,No SAEs were reported
same,Patients with at least one ADR,"Part B IDR n=8, all resolved spontaneously",87.5%
same,Hypomania induction,TRD patients,no evidence of hypomania induction
